Measurements from US10995068B2, “Synthetic sphingolipid-like molecules, drugs, methods of their synthesis and methods of treatment” (The Regents of the University of California, priority 2015, dated 2021).
Where two headings read alike, the source gives them in different places.

Key:
[1] = test system: PC3 prostate cancer cells; test: Cell Titer Glo proliferation assay in PC3; type: cell-based, human; details: Cell Titer Glo, 72 h, Mean ± SEM, n ≥ 3, read-out: IC50 values in prostate cancer cell lines, PC3
Method: (§1) Previously presented compounds 1-4 (FIG. 23), compounds 5-8 (FIG. 28), and control compound FTY720 (FIG. 2) were used to treat the well-established PC3 and DU145 prostate cancer lines (FIG. 29 and Table 1). A Cell Titer Glo assay was performed to measure proliferation of the cancer lines.
(§2) Cell culture studies: Sup-B15 cells are maintained at 2-3 million/mL in RPMI 1640 (Mediatech) supplemented with 10% fetal calf serum (FCS, Sigma-Aldrich), 10 mM Hepes (Mediatech), 55 μM β-mercaptoethanol (Sigma-Aldrich), 2 mM L-glutamine (Mediatech), and antibiotics. All adherent cells are maintained at 70-80% confluence. Cell are cultured in the following media: PC3 & A549, Ham's F12K (Corning Cell Gro) supplemented with 10% FCS and antibiotics; DU145 cells, MEM (Corning Cell Gro) supplemented with 10% FCS, 1 mM sodium pyruvate (Mediatech), and antibiotics; SW620 & MDA-MB-231, DMEM (Corning Cell Gro) with 10% FCS, 1 mM sodium pyruvate (Mediatech), and antibiotics; Panc-1 cells, DMEM (Corning Cell Gro) supplemented with 10% FCS and antibiotics. All of the above cell lines are available from the ATCC.
(§3) Viability assays: Cell Titer Glo assays (Cell Titer Glo Luminescent Cell Viability Assay kit, cat #G7571, Promega Corporation) are performed in clear bottom 96-well black cell culture plates (cat #655090, Greiner Bio-One, NC, USA). After plating at 1,000 cells/well in volume of 100 μl, cells are left undisturbed for at least 24 h before drug addition. After 72 h, cells are prepared for analysis by adding 10 μl of 0.1% Triton-X100 in PBS with shaking for 1 min at room temperature (RT). Cell Titer-Glo cell lysis reagent (20 μl) is then added followed by 1 min of shaking and a 10 min incubation in the dark at RT. Luminescence is detected using an IVIS imaging system (IVIS Lumina II, Perkin Elmer, USA). […] IC50s are determined using GraphPad Prism (GraphPad Software, Inc, La Jolla, Calif.). SupB-15 viability was determined by flow cytometry. Cell Titer Glo assays were performed with the other cell lines.

[2] = test system: DU145 prostate cancer cells; test: Cell Titer Glo proliferation assay in DU145; type: cell-based, human; details: Mean ± SEM, n ≥ 3, read-out: IC50 values in prostate cancer cell lines, DU145
Method: as §1, §2, §3

[3] = biological target: T1, S1P receptor 1 (Homo sapiens, UniProt P21453); test: S1P receptor activation in CHO cells, S1P1; type: cell-based; details: CHO cells over-expressing human S1P1, 10 min stimulation, Western blot
T1 construct: expressed in transfected cells
Text: (§4) Phosphorylation may have effects on S1P receptor activity that could cause bradycardia. Bradycardia, the dose-limiting toxicity that prevents the use of FTY720 in cancer patients, stems from FTY720-P's actions on S1P receptors 1 and 3. (Camm, J., et al. (2014) Am. Heart J. 168, 632-644; Cohen, J. A., Chun, J. (2011) Ann. Neurol. 69, 759-777; Sanna, M. G., et al. (2004) J. Biol. Chem. 279, 13839-13848; the disclosures of which are incorporated herein by reference). Phosphorylation by sphingosine kinase may make compounds competent to activate S1P receptors. FTY720, for example, when phosphorylated is known to activate S1P receptors 1 and 3. Because compound 5 could be phosphorylated, the activity of compound 5 and its phosphate 5-P (FIG. 28) on S1P receptors was evaluated (FIG. 32).
(§5) 51P1-5 activation: Chinese hamster ovary (CHO) cells stably over-expressing the different human 51P receptor subtypes are used. S1P1, S1P4 and S1P5 overexpressing CHO cells are cultured in medium containing alpha-MEM supplemented with 10% FBS, 50 μg/ml gentamycin and 0.5 mg/ml G418. S1P2 and S1P3 overexpressing CHO cells are cultured in RPMI containing 10% FBS, 50 μg/ml gentamycin and 0.5 mg/ml G418. Prior to stimulation, cells are rendered serum-free for 24 h. Stimulation is carried out for 10 min in serum-free DMEM containing 0.1 mg/ml of fatty-acid free BSA in the absence or presence of the various compounds or 51P. Protein lysates are prepared using a buffer containing (50 mM Tris pH 7.4, 150 mM NaCl, 10% glycerol, 1% Triton X-100, 2 mM EDTA, 2 mM EGTA, 40 mM β-glycerophosphate, 50 mM sodium fluoride, 10 mM sodium pyrophosphate, 2 mM dithiothreitol, 0.2 mM sodium orthovanadate). Cells are homogenized by one 5 sec burst in a MSE Ultrasonic Disintegrator, centrifuged and taken for protein determination. Equal amounts of protein are separated by SDS-PAGE (10% polyacrylamide gel), transferred to nitrocellulose membranes and subjected to Western blot analysis. Bands were stained using IRDye® secondary antibodies and visualized by the LICOR Odyssey® Fc Imaging system. Antibodies against phospho-Thr202/Tyr204-p42/p44-MAPK and phospho-Ser PKC substrate are from Cell Signaling, Frankfurt am Main, Germany. Polyclonal antisera against total p42 and total p44 were generated and characterized as previously described. (Huwiler, A.; Pfeilschifter, J. Br. J. Pharmacol. 1994, 113, 1455-1463; disclosure of which is incorporated herein by reference).

[4] = biological target: T2, S1P receptor 2 (Homo sapiens, UniProt O95136); test: S1P receptor activation in CHO cells, S1P2; type: cell-based; details: CHO cells over-expressing human S1P2
T2 construct: expressed in transfected cells
Text: as §4, §5

[5] = biological target: T3, S1P receptor 3 (Homo sapiens, UniProt Q99500); test: S1P receptor activation in CHO cells, S1P3; type: cell-based; details: CHO cells over-expressing human S1P3
T3 construct: expressed in transfected cells
Text: as §4, §5

[6] = biological target: T4, S1P receptor 4 (Homo sapiens, UniProt O95977); test: S1P receptor activation in CHO cells, S1P4; type: cell-based; details: CHO cells over-expressing human S1P4
T4 construct: expressed in transfected cells
T4 sequence (O95977 1-384): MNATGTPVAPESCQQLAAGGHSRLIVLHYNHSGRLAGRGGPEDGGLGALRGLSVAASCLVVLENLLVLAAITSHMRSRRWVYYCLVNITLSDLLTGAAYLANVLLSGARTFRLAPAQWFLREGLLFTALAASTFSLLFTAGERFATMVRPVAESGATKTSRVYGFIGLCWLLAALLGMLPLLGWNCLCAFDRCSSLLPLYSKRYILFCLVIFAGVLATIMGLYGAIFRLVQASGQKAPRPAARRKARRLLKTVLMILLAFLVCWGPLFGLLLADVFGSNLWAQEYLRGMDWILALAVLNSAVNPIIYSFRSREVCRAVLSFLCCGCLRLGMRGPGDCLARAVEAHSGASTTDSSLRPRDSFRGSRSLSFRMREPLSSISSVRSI
Text: as §4, §5

[7] = biological target: T5, S1P receptor 5 (Homo sapiens, UniProt Q9H228); test: S1P receptor activation in CHO cells, S1P5; type: cell-based; details: CHO cells over-expressing human S1P5
T5 construct: expressed in transfected cells
Text: as §4, §5

[8] = Heart rate by ECG telemetry in mice; type: in vivo, C57BL/6 mice; details: single dose 10 mg/kg intraperitoneally
Text: (§6) In more exemplary embodiments, compounds 5 and 5-P were further examined for their ability to activate multiple S1P receptors in vivo. In particular, mouse heart rate and lymphocyte sequestration were examined. Mouse heart rate decreases causing bradycardia when S1P receptor 3 is activated while in humans this effect may be mediated by S1P receptor 1. In both mice and humans, lymphocytes are sequestered when the S1P receptor 1 is activated.
As shown in the telemetry readings detailed in FIG. 36, FTY720 (B) slowed heart rate comparison to compound 5 (C) and the control (A, saline). As shown in A, after administering saline, normal sinus rhythm with clearly discernible P waves, representing atrial depolarization, and QRS complexes, representing ventricular depolarization, at regular intervals is observed. The heart rate in this tracing was approximately 600 beats per minute (BPM). […] Finally, as shown in C, for exemplary embodiment compound 5, similar to the saline injection, normal sinus rhythm with well-defined and consistent P waves and QRS complexes were present following injection. The heart rate in this tracing was approximately 600 BPM, similar to saline.
Heart rate: C57BL/6 mice are surgically implanted with DSI TA-ETAF20 electrocardiographic telemetry devices (Data Sciences International, St. Paul, Minn.). The electrocardiographic data is collected and recorded using the PhysioTel telemetry system and Dataquest A.R.T 4.0 software (DSI). The telemetry device is implanted in the mouse's abdominal cavity with biopotential leads sutured in place in the chest wall. Buprenorphine (0.05 mg/kg) is administered every 12 h after surgery for pain management and enrofloxacin (3 mg/kg) is administered 2× per day for 7 days post-surgery as an antibiotic. Mice are permitted two weeks recovery after surgery before initiation of baseline telemetry recordings. Heart rate is calculated from ECG data taken in the freely moving, conscious mice. Mice are divided into two groups of 3 mice and treated intraperitoneally with a single dose of vehicle (0.9% saline or 20% acidified DMSO in 0.9% saline), 10 mg/kg FTY720, FTY720-Phosphate, 5, or 5-P and heart rate monitored continuously for 10 h. Mice are rested for two weeks at which point the experiment is repeated with the mice assigned to the alternate group. These experiments are performed in accordance with all national or local guidelines and regulations and were approved by the UCI Institutional Animal Care and Use Committee.

[9] = Lymphocyte sequestration in mice; type: in vivo, C57BL6 mice; details: 10 mg/kg intraperitoneally, blood after 12 h, compared to saline
Text: as §6
Lymphocyte sequestration: Female 8-24 week old C57BL6 mice are injected intraperitoneally with vehicle (0.9% saline or 20% acidified DMSO in 0.9% saline), 10 mg/kg FTY720, FTY720-phosphate, 5, or 5-P. After 12 h, blood is collected from the retro-orbital sinus under ketamine/xylazine anesthesia. 10 μL of whole blood is added to 190 μL of ACK red blood cell lysis buffer, incubated at room temperature for 3-5 minutes […], and the white blood cells recovered by centrifugation. Nucleated cells (Hoechst33342 positive) are counted using a hemocytometer to obtain the white blood cell count. Separately, 50 μL of whole blood is added to 1 mL of ACK red blood cell lysis buffer and incubated for 3-5 minutes at room temperature. Cells are washed with FACS wash (2% FCS in PBS with 0.05% NaN3) and red blood cell lysis repeated. Tubes are decanted and resuspended in 100 μL of FACS block (10% FCS in PBS with 0.05% NaN3) with directly conjugated antibodies recognizing B220, CD4, or CD8 (all from Biolegend, San Diego) for 30 min on ice. Cells are analyzed on a BD LSR II flow cytometer; the analysis is restricted to live cells (DAPI negative). These experiments are performed in accordance with all national or local guidelines and regulations and are approved by the UCI Institutional Animal Care and Use Committee.

[10] = test system: PC3 prostate cancer cells; test: Cell viability by vital dye exclusion and flow cytometry in PC3; type: cell-based, human; details: Homo sapiens; vital dye exclusion (DAPI) and flow cytometry, 72 h
Method: Thus, to determine whether analogues in accordance with embodiments of the invention are cytotoxic, studies were conducted using vital dye exclusion and flow cytometry (Table 2).
as §3

T2 sequence (O95136 whole entry): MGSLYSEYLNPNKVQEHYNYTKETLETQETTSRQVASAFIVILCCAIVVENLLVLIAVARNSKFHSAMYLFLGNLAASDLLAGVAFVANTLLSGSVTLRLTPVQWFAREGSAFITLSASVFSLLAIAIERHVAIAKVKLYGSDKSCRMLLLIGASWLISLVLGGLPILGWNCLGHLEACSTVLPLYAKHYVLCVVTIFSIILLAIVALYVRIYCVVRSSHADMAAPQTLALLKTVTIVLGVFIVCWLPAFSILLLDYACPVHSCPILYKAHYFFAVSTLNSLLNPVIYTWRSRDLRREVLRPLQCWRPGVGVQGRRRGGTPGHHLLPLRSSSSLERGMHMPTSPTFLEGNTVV
T1 sequence (P21453 whole entry): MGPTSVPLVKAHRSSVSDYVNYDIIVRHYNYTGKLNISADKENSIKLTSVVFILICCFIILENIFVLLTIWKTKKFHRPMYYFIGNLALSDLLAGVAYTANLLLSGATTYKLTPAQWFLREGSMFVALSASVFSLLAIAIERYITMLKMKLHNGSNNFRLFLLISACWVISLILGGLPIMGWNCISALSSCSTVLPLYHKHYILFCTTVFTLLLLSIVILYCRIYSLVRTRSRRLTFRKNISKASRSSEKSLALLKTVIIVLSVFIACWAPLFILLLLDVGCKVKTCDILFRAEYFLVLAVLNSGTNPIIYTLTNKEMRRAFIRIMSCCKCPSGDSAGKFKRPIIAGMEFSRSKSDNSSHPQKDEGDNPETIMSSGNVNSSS
T5 sequence (Q9H228 whole entry): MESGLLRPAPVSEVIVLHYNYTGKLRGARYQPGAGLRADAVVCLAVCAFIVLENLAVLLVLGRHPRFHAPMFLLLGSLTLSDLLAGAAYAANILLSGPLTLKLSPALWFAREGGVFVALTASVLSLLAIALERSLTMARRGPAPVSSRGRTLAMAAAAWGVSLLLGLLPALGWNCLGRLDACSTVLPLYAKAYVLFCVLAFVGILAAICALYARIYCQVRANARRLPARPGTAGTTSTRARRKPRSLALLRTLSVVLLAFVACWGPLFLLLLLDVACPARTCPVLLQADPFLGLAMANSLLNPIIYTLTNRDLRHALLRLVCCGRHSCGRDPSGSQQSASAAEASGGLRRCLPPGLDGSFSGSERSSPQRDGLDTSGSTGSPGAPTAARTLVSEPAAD
T3 sequence (Q99500 whole entry): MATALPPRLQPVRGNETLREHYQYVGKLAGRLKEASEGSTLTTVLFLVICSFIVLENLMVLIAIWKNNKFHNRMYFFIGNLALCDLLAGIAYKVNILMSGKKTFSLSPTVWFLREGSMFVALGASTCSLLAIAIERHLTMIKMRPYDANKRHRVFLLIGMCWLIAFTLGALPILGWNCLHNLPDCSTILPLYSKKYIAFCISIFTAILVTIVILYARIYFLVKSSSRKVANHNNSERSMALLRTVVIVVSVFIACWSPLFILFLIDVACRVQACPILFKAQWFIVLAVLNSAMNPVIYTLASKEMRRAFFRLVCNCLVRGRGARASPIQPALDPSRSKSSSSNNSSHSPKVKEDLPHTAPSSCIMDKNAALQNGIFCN

IC50 ([1]; Homo sapiens) [µM]	IC50 ([2]; Homo sapiens, DU-145, 72 h) [µM]	IC50 [10] [µM]	Compound	IC50 [1] [µM]	IC50 ([2]; 72 h) [µM]	activation of S1P receptor 1 [3]	activation of S1P receptor 2 [4]	activation of S1P receptor 3 [5]	activation of S1P receptor 4 [6]	activation of S1P receptor 5 [7]	effect on heart rate ([8]; compared to saline controls)	lymphocyte sequestration [9]	decrease of heart rate ([8]; compared to saline vehicle)
			CCCCCCCCc1ccc([C@@H]2CCN[C@H]2C)cc1.Cl [Compound 12]	4.1 ± 0.4	5 ± 0.1	not able to activate	not able to activate	not able to activate	not able to activate	not able to activate			
			CCCCCCCCc1ccc([C@H]2CCN[C@@H]2COP(=O)(O)O)cc1 [Compound 5-P, ((2S,3R)-3-(4-octylphenyl)pyrrolidin-1-ium-2-yl)Methyl hydrogen phosphate]			weakly activated	failed to activate	failed to activate	failed to activate	failed to activate	no significant effect	no significant effect	
			CCCCCCCCc1ccc(CC[C@](N)(CO)COP(=O)(O)O)cc1 [FTY720-P, reference compound]									significantly sequestered lymphocytes	approximately 50%
			CCCCCCCCCCCCC/C=C/[C@@H](O)[C@@H](N)COP(=O)(O)O [Compound S1P, sphingosine-1 phosphate, reference compound]			activated	activated	activated	activated	activated			
4.9 ± 0.6	5.3 ± 0.2	8.3 ± 0.2	CCCCCCCCc1ccc([C@H]2C[C@H](CO)N[C@H]2CO)cc1 [Compound 3, (2R,3R,5R)-2,5-Bis(hydroxymethyl)-3-(4-octylphenyl)pyrrolidinium chloride]										
